The test system of one series is HIV-IIIb. Kind of series: Test A: Antiviral Assay in MT4 Cells. Type of series: cell-based, HIV-1. The following applies: Human immunodeficiency virus 1, IIIB, MT4, 120 h; for inhibition at 0.2 µM: read-out: % inhibition at 0.2 μM; for inhibition at 2 µM: read-out: % inhibition at 2 μM. The protocol:
Test A: Antiviral Assay in MT4 Cells
MT-4 cells were next mixed with HIV-IIIb at an m.o.i of 0.003 for 1 hour, after which time 35 μL of virus/cell mixture (2000 cells) was immediately added to each well containing 40 μL of diluted compound. The plates were then incubated at 37° C. for 5 days. […] Cell lysis was carried out by incubating at room temperature for 10 min and then chemiluminescence was read.

The nature of series [1]: Test B: Cytotoxicity Assay. Type of series: cell-based. Particulars: human, uninfected MT-4 cells, same protocol as Test A. The procedure, abridged: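 Uninfected MT-4 cells (2000 per well) incubated with diluted compound at 37° C. for 5 days, following the antiviral protocol without HIV-IIIb.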

Structures are written as SMILES.

In general, inhibition refers to the drop in the measured response relative to a control, in per cent. Usually CC50 stands for the concentration giving 50% cytotoxicity. In the case of `Cn1nc(NS(C)(=O)=O)c2c(Cl)ccc(-c3ccc(C#CC(C)(C)O)nc3[C@H](Cc3cc(F)cc(F)c3)NC(=O)Cn3nc(Cl)c4c3C(F)(F)[C@@H]3C[C@H]43)c21` [Compound 149, N—((S)-1-(3-(4-chloro-1-methyl-3-(methylsulfonamido)-1H-indazol-7-yl)-6-(3-hydroxy-3-methylbut-1-yn-1-yl)pyridin-2-yl)-2-(3,5-difluorophenyl)ethyl)-2-((3bS,4aR)-3-chloro-5,5-difluoro-3b,4,4a,5-tetrahydro-1H-cyclopropa[3,4]cyclopenta[1,2-c]pyrazol-1-yl)acetamide], in the series on HIV-IIIb, the inhibition at 0.2 µM amounted to 86% and the inhibition at 2 µM worked out at 86%. The compound further came in with a CC50 at 5 days in series [1] of 26.7 µM.

For `Cn1nc(NC(=O)NC2CC2)c2cccc(-c3ccc(C#CC(C)(C)O)nc3[C@H](Cc3cc(F)cc(F)c3)NC(=O)Cn3nc(C(F)(F)F)c4c3C(F)(F)[C@@H]3C[C@H]43)c21` [Compound 50, N—((S)-1-(3-(3-(3-cyclopropylureido)-1-methyl-1H-indazol-7-yl)-6-(3-hydroxy-3-methylbut-1-yn-1-yl)pyridin-2-yl)-2-(3,5-difluorophenyl)ethyl)-2-((3b-S,4aR)-5,5-difluoro-3-(trifluoromethyl)-3b,4,4a,5-tetrahydro-1H-cyclopropa[3,4]cyclopenta[1,2-c]pyrazol-1-yl)acetamide], in the series on HIV-IIIb, the inhibition at 0.2 µM was found to be 95% and the inhibition at 2 µM was found to be 96%. The compound further gave a CC50 at 5 days in series [1] of 11.7 µM.

For the compound `Cn1nc(NC(=O)N2CCOCC2)c2cccc(-c3ccc(C#CC(C)(C)O)nc3[C@H](Cc3cc(F)cc(F)c3)NC(=O)Cn3nc(C(F)(F)F)c4c3C(F)(F)[C@@H]3C[C@H]43)c21` [Compound 52, N-(7-(2-((S)-1-(2-((3bS,4aR)-5,5-difluoro-3-(trifluoromethyl)-3b,4,4a,5-tetrahydro-1H-cyclopropa[3,4]cyclopenta[1,2-c]pyrazol-1-yl)acetamido)-2-(3,5-difluorophenyl)ethyl)-6-(3-hydroxy-3-methylbut-1-yn-1-yl)pyridin-3-yl)-1-methyl-1H-indazol-3-yl)morpholine-4-carboxamide], in the series on HIV-IIIb, the inhibition at 0.2 µM came out at 92% and the inhibition at 2 µM was 93%. The same compound had a CC50 at 5 days in series [1] of 31.8 µM.

With `Cn1nc(NC(N)=O)c2c(Cl)ccc(-c3ccc(C#CC(C)(C)O)nc3[C@H](Cc3cc(F)cc(F)c3)NC(=O)Cn3nc(C(F)F)c4c3C(F)(F)[C@@H]3C[C@H]43)c21` [Compound 92, N—((S)-1-(3-(4-chloro-1-methyl-3-ureido-1H-indazol-7-yl)-6-(3-hydroxy-3-methylbut-1-yn-1-yl)pyridin-2-yl)-2-(3,5-difluorophenyl)ethyl)-2-((3bS,4aR)-3-(difluoromethyl)-5,5-difluoro-3b,4,4a,5-tetrahydro-1H-cyclopropa[3,4]cyclopenta[1,2-c]pyrazol-1-yl)acetamide], in the series on HIV-IIIb, the inhibition at 0.2 µM amounted to 100% and the inhibition at 2 µM came out at 100%. In series [1], this compound yielded a CC50 at 5 days of 6.24 µM.

Consider `Cc1cc2ncn(CC(=O)N[C@@H](Cc3cc(F)cc(F)c3)c3nc(C#CC(C)(C)O)ccc3-c3ccc(Cl)c4c(NS(C)(=O)=O)nn(C)c34)c2cc1C` [Compound 199, (S)—N-(1-(3-(4 chloro-1-methyl-3-(methylsulfonamido)-1H-indazol-7-yl)-6-(3-hydroxy-3-methylbut-1-yn-1-yl)pyridin-2-yl)-2-(3,5-difluorophenyl)ethyl)-2-(5,6-dimethyl-1H-benzo[d]imidazol-1-yl)acetamide], for which, in the series with HIV-IIIb, the inhibition at 0.2 µM is 95% and the inhibition at 2 µM is 95%. Besides, the CC50 at 5 days in series [1] came out at 22.5 µM.

For `CC(C)(O)C#Cc1ccc(-c2ccc3nnc(N)n3c2)c([C@H](Cc2cc(F)cc(F)c2)NC(=O)Cn2nc(C(F)F)c3c2C(F)(F)[C@@H]2C[C@H]32)n1` [Compound 105E, N—((S)-1-(3-(3-amino-[1,2,4]triazolo[4,3-a]pyridin-6-yl)-6-(3-hydroxy-3-methylbut-1-yn-1-yl)pyridin-2-yl)-2-(3,5-difluorophenyl)ethyl)-2-((3b-S,4aR)-3-(difluoromethyl)-5,5-difluoro-3b,4,4a,5-tetrahydro-1H-cyclopropa[3,4]cyclopenta[1,2-c]pyrazol-1-yl)acetamide], the inhibition at 2 µM in the series on HIV-IIIb came to 74%. In series [1], this compound yielded a CC50 at 5 days of 31.5 µM.

For the compound `Cn1cc(S(=O)(=O)Nc2nn(C)c3c(-c4ccc(C#CC(C)(C)O)nc4[C@H](Cc4cc(F)cc(F)c4)NC(=O)Cn4nc(C(F)(F)F)c5c4C(F)(F)[C@@H]4C[C@H]54)cccc23)cn1` [Compound 48, 2-((3bS,4aR)-5,5-difluoro-3-(trifluoromethyl)-3b,4,4a,5-tetrahydro-1H-cyclopropa[3,4]cyclopenta[1,2-c]pyrazol-1-yl)-N—((S)-2-(3,5-difluorophenyl)-1-(6-(3-hydroxy-3-methylbut-1-yn-1-yl)-3-(1-methyl-3-(1-methyl-1H-pyrazole-4-sulfonamido)-1H-indazol-7-yl)pyridin-2-yl)ethyl)acetamide], in the series with HIV-IIIb, the inhibition at 0.2 µM was 88% and the inhibition at 2 µM was found to be 88%. Moreover, in series [1], half-maximal cytotoxicity (CC50 at 5 days) was put at 24 µM.

On to `Cn1nc(NS(N)(=O)=O)c2cccc(-c3ccc(C#CC(C)(C)O)nc3[C@H](Cc3cc(F)cc(F)c3)NC(=O)Cn3nc(C(F)F)c4c3C(F)(F)[C@@H]3C[C@H]43)c21` [Compound 54, 2-((3b-S,4aR)-3-(difluoromethyl)-5,5-difluoro-3b,4,4a,5-tetrahydro-1H-cyclopropa[3,4]cyclopenta[1,2-c]pyrazol-1-yl)-N—((S)-2-(3,5-difluorophenyl)-1-(6-(3-hydroxy-3-methylbut-1-yn-1-yl)-3-(1-methyl-3-(sulfamoylamino)-1H-indazol-7-yl)pyridin-2-yl)ethyl)acetamide], for which, in the series on HIV-IIIb, the inhibition at 0.2 µM stood at 98% and the inhibition at 2 µM worked out at 98%. The CC50 at 5 days in series [1] stood at 8.08 µM.

With `CNc1nn(C)c2c(-c3ccc(C#CC(C)(C)O)nc3[C@H](Cc3cc(F)cc(F)c3)NC(=O)Cn3nc(C(F)F)c4c3C(F)(F)[C@@H]3C[C@H]43)ccc(Cl)c12` [Compound 81, N—((S)-1-(3-(4-chloro-1-methyl-3-(methylamino)-1H-indazol-7-yl)-6-(3-hydroxy-3-methylbut-1-yn-1-yl)pyridin-2-yl)-2-(3,5-difluorophenyl)ethyl)-2-((3bS,4aR)-3-(difluoromethyl)-5,5-difluoro-3b,4,4a,5-tetrahydro-1H-cyclopropa[3,4]cyclopenta[1,2-c]pyrazol-1-yl)acetamide], in the series on HIV-IIIb, the inhibition at 0.2 µM worked out at 100% and the inhibition at 2 µM amounted to 100%. The same compound displayed a CC50 at 5 days in series [1] of 12.5 µM.

For the compound `Cn1nc(NS(C)(=O)=O)c2c(Cl)ccc(-c3ccc(C#CC(C)(C)O)nc3[C@H](Cc3cc(F)cc(F)c3)NC(=O)Cn3nc4c(c3Cl)CCCC4)c21` [Compound 125D, (S)—N-(1-(3-(4 chloro-1-methyl-3-(methylsulfonamido)-1H-indazol-7-yl)-6-(3-hydroxy-3-methylbut-1-yn-1-yl)pyridin-2-yl)-2-(3,5-difluorophenyl)ethyl)-2-(3-chloro-4,5,6,7-tetrahydro-2H-indazol-2-yl)acetamide], in the series with HIV-IIIb, the inhibition at 0.2 µM was 96% and the inhibition at 2 µM amounted to 97%. In series [1], this compound registered a CC50 at 5 days of 13.6 µM.

As to `C[C@H](O)C#Cc1ccc(-c2ccc(Cl)c3c(NS(C)(=O)=O)nn(C)c23)c([C@H](Cc2cc(F)cc(F)c2)NC(=O)Cn2nc(C(F)F)c3c2C(F)(F)[C@@H]2C[C@H]32)n1` [Compound 142, N—((S)-1-(3-(4-chloro-1-methyl-3-(methylsulfonamido)-1H-indazol-7-yl)-6-((S)-3-hydroxybut-1-yn-1-yl)pyridin-2-yl)-2-(3,5-difluorophenyl)ethyl)-2-((3bS,4aR)-3-(difluoromethyl)-5,5-difluoro-3b,4,4a,5-tetrahydro-1H-cyclopropa[3,4]cyclopenta[1,2-c]pyrazol-1-yl)acetamide], in the series on HIV-IIIb, the inhibition at 0.2 µM turned out to be 92% and the inhibition at 2 µM stood at 92%. Besides, the CC50 at 5 days in series [1] was 12.6 µM.

For the compound `Cn1nc(NS(C)(=O)=O)c2c(Cl)ccc(-c3ccc(-c4ncccn4)nc3[C@H](Cc3cc(F)cc(F)c3)NC(=O)Cn3nc(C(F)(F)F)c4c3C(F)(F)[C@@H]3C[C@H]43)c21` [Compound 176, N—((S)-1-(3-(4-chloro-1-methyl-3-(methylsulfonamido)-1H-indazol-7-yl)-6-(pyrimidin-2-yl)pyridin-2-yl)-2-(3,5-difluorophenyl)ethyl)-2-((3b-S,4aR)-5,5-difluoro-3-(trifluoromethyl)-3b,4,4a,5-tetrahydro-1H-cyclopropa[3,4]cyclopenta[1,2-c]pyrazol-1-yl)acetamide], in the series with HIV-IIIb, the inhibition at 0.2 µM came to 100% and the inhibition at 2 µM was 100%. Besides, the CC50 at 5 days in series [1] was determined as 17.4 µM.

In the case of `Cn1nc(NS(C)(=O)=O)c2cccc(-c3ccc(C#CC(C)(C)O)nc3[C@H](Cc3cc(F)cc(F)c3)NC(=O)Cn3nc(C(F)(F)F)c4c3C(F)(F)[C@@H]3C[C@H]43)c21` [Compound 33F, 2-((3bS,4aR)-5,5-difluoro-3-(trifluoromethyl)-3b,4,4a,5-tetrahydro-1H-cyclopropa[3,4]cyclopenta[1,2-c]pyrazol-1-yl)-N—((S)-2-(3,5-difluorophenyl)-1-(6-(3-hydroxy-3-methylbut-1-yn-1-yl)-3-(1-methyl-3-(methylsulfonamido)-1H-indazol-7-yl)pyridin-2-yl)ethyl)acetamide], in the series on HIV-IIIb, the inhibition at 0.2 µM amounted to 93% and the inhibition at 2 µM was determined as 93%. Further, in series [1], the CC50 at 5 days was 12.9 µM.
